In US7745152B2, “Method for determining genotoxicity” (priority 2004, dated 2010):
Several values for one entry are separate records, joined by “and”; a condition that tells them apart may be missing. Equal values may be shown once.

Tests used:
[1] = system: C2C12 cells; settings: mouse
[2] = system: C2C12 cells
Description: (§1) Three independent replicates were generated for each drug and time point. Sample processing was carried out according to protocols described in the Affymetrix Expression Analysis Technical Manual. Briefly, total RNA was isolated from cells by the acid guanidinium thiocyanate-phenol-chloroform extraction method (Trizol®, Invitrogen, Carlsbad, Calif.). Twice purified poly(A+) RNA was isolated and reverse transcribed using a T7-promoter coupled oligo(dT) primer, followed by in vitro transcription. The labeled samples were applied to the Affymetrix Murine Genome MOE430 set and were hybridized overnight at 45° C./60 rpm, washed using a FS450 Fluidics station, and scanned on a GS3000 scanner. The resulting image files were analyzed using Affymetrix software (Microarray Analysis Suite version 5.0).
(§2) To measure the effect of drug treatment on cellular gene expression, replicate data obtained from each drug and time point were compared with replicates for vehicle-matched controls using the Student t-test. The gene expression levels were Log transformed before applying the Student t-test. The fold change of the average expression level between the control and drug-treated cells was also calculated. […] A gene was considered expressed if the Affymetrix software determined that the gene was “present” in two out of the three replicates. This ensured that true expression changes were identified, and could be distinguished from background variability. Second, the calculated expression change for each of five tested drugs was at least 2 fold, and the calculated p-value for the expression change using the Student t-test was less than 0.01.

[3] = system: C2C12 cells; experiment: C2C12 myogenic differentiation after MMS exposure with siRNA transfection; settings: 75 μM MMS, 24 hours, then differentiation media, 72 hours
[4] = system: C2C12 cells; experiment: Genomic assay: gene expression analysis (Affymetrix Murine Genome MOE430) in C2C12 cells induced to differentiate
Description: as §1, §2

COS(C)(=O)=O [Methanesulfonate methyl ester (MMS), Methanesulfonate methyl ester]
Lowest effective dose [1]: 0.002 µg/mL
Fold change in expression: Ephx1, Epoxide hydrolase 1 (microsomal xenobiotic hydrolase) [2]: 2.10 fold
Fold change in expression: Hgf, Hepatocyte growth factor (scatter factor) [2]: 2.20 fold
C2C12 cell differentiation into myotubes after genotoxin exposure [3]: completely inhibited
Fold change in expression: 0610013D04 Rik, RIKEN cDNA [4]: 2.60 fold
Fold change in expression: 1600013K19 Rik, RIKEN cDNA [4]: 0.62 fold
Fold change in expression: 2610005B21 Rik, RIKEN cDNA [4]: 0.53 fold
Fold change in expression: 2610019I03 RIK, RIKEN cDNA [4]: 0.43 fold
Fold change in expression: 2610509G12 Rik, RIKEN cDNA [4]: 0.55 fold
Fold change in expression: 2810417H13 Rik, RIKEN cDNA [4]: 0.48 fold
Fold change in expression: 4833427G06 Rik, RIKEN cDNA [4]: 3.70 fold
Fold change in expression: 6530401L14 Rik, RIKEN cDNA [4]: 0.39 fold
Fold change in expression: 9030617O03 Rik, RIKEN cDNA [4]: 2.40 fold
Fold change in expression: Anxa8, Annexin A8 [4]: 2.50 fold
Fold change in expression: Asflb, ASF1 anti-silencing function 1 homolog B (Saccharomyces) [4]: 0.47 fold
Fold change in expression: Birc5, Baculoviral IAP repeat-containing 5 [4]: 0.51 fold
Fold change in expression: Brca1, Breast cancer 1 [4]: 0.47 fold
Fold change in expression: Calmbp1, Calmodulin binding protein 1 [4]: 0.30 fold
Fold change in expression: Capn6, Calpain 6 [4]: 0.60 fold
Fold change in expression: Ccna2, Cyclin A2 [4]: 0.46 fold
Fold change in expression: Ccng1, Cyclin G1 [4]: 2.40 fold
Fold change in expression: Cilp, Cartilage intermediate layer pro [4]: 0.57 fold
Fold change in expression: Cks2, CDC28 protein kinase regulatory subunit 2 [4]: 0.59 fold
Fold change in expression: D4Ertd421e, DNA segment, Chr 4, ERATO Doi 421, expressed [4]: 0.44 fold
Fold change in expression: Dda3-pending, Differential display and activated by p53 [4]: 3.70 fold
Fold change in expression: E2f7, E2F transcription factor 7 [4]: 0.55 fold
Fold change in expression: E030024M05 Rik, RIKEN cDNA [4]: 2.00 fold
Fold change in expression: E130315B21 Rik, RIKEN cDNA [4]: 0.64 fold
Fold change in expression: Fbxo5, f-box only protein 31 [4]: 0.42 fold
Fold change in expression: Foxm1, Forkhead box M1 [4]: 0.41 fold
Fold change in expression: Gmnn, Geminin [4]: 0.54 fold
Fold change in expression: Gnpi, Glucosamine-6-phosphate deaminase [4]: 1.60 fold
Fold change in expression: Hmgb2, High mobility group box 2 [4]: 0.56 fold
Fold change in expression: Hmgb3, High mobility group box 3 [4]: 0.45 fold
Fold change in expression: Hmmr, Hyaluronan mediated motility receptor (RHAMM) [4]: 0.36 fold
Fold change in expression: Kifl1, Kinesin 11 [4]: 0.43 fold
Fold change in expression: Lek1, Leucine, glutamic acid, lysine family 1 protein [4]: 0.36 fold
Fold change in expression: Ly6e, Lymphocyte antigen 6 complex, locus E [4]: 1.80 fold
Fold change in expression: M-phosph1, M-phase phosphoprotein [4]: 0.27 fold
Fold change in expression: MGC:32192, Mus musculus cDNA clone MGC: 32192 IMAGE: 5006129 [4]: 0.46 fold
Fold change in expression: Mad2l1, MAD2 (mitotic arrest deficient, homolog)-like 1 (yeast) [4]: 0.43 fold
Fold change in expression: Mad3, Max dimerization protein 3 [4]: 0.52 fold
Fold change in expression: Mcm3, Minichromosome maintenance deficient 3 (Saccharomyces) [4]: 0.56 fold
Fold change in expression: Mcmd4, Minichromosome maintenance deficient 4 homolog [4]: 0.57 fold
Fold change in expression: Mki67, Antigen identified by MAb Ki67 [4]: 0.31 fold
Fold change in expression: Mmhead, Mus musculus 15 day embryo head cDNA clone [4]: 3.00 fold
Fold change in expression: Nos3, Nitric oxide synthase 3, endothelial cell [4]: 1.90 fold
Fold change in expression: Np95, Nuclear protein 95 [4]: 0.41 fold
Fold change in expression: Nusap1, Nucleolar and spindle associated protein 1 [4]: 0.48 fold
Fold change in expression: Osbp16, Oxysterol binding protein-like 6 [4]: 2.20 fold
Fold change in expression: Pbk, PDZ binding kinase [4]: 0.46 fold
Fold change in expression: Pcna, Proliferating cell nuclear antigen [4]: 0.60 fold
Fold change in expression: Phex, Phosphate regulating neutral endopeptidase (X chromosome) [4]: 2.20 fold
Fold change in expression: Plf, Proliferin [4]: 2.60 fold
Fold change in expression: Pola1, DNA polymerase alpha 1, 180 kDa [4]: 0.37 fold
Fold change in expression: Prc1, Protein regulator of cytokinesis 1 [4]: 0.44 fold
Fold change in expression: Prelp, Proline arginine-rich end leucine-rich repeat [4]: 0.19 fold
Fold change in expression: Prim1, DNA primase, p49 subunit [4]: 0.51 fold
Fold change in expression: Rad51ap1, RAD51-associated protein 1 [4]: 0.45 fold
Fold change in expression: Rbl1, Retinoblastoma-like 1 (p107) [4]: 0.59 fold
Fold change in expression: Serpine1, Ser (or Cys) proteinase inhibitor, clade E, member 1 [4]: 0.58 fold
Fold change in expression: Sesn2, Sestrin 2 [4]: 5.30 fold
Fold change in expression: Shcbp1, Shc SH2-domain binding protein 1 [4]: 0.37 fold
Fold change in expression: Slc19a2, Solute carrier family 19 (thiamine transporter), member 2 [4]: 2.70 fold and 2.30 fold
Fold change in expression: Slc35a5, Solute carrier family 35, member A5 [4]: 2.60 fold
Fold change in expression: Smc2l1, SMC2 structural maintenance of chromosomes 2-like 1 [4]: 0.49 fold
Fold change in expression: Stk18, Serine/threonine kinase 18 [4]: 0.49 fold
Fold change in expression: Tacc3, Transforming, acidic coiled-coil containing protein 3 [4]: 0.48 fold
Fold change in expression: Tagln, Transgelin (smooth muscle 22 protein) [4]: 0.47 fold
Fold change in expression: Tk1, Thymidine kinase 1 [4]: 0.46 fold
Fold change in expression: Top2a, Topoisomerase (DNA) II alpha [4]: 0.37 fold
Fold change in expression: Trp53inp1, Transformation related protein, 53 inducible nuclear protein 1 [4]: 2.90 fold
Fold change in expression: Usp30, Ubiquitin specific protease 30 [4]: 3.70 fold
Fold change in expression: Wig1, Wild-type p53-induced gene 1 [4]: 2.40 fold
